#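 Assay format: 96-well plates, 48-hour exposure. GI50 = concentration required for 50% inhibition of growth. TGI denotes the concentration required for complete inhibition of growth.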
# Experiments:
# Test in all cases: inhibition of tumour cell growth, NCI panel, 48 h
# 786-0 renal = test system: 786-0 renal
# A498 renal = test system: A498 renal
# A549 NSCLC = test system: A549 NSCLC
# ACHN renal = test system: ACHN renal
# BT-549 breast = test system: BT-549 breast
# CAKI-1 renal = test system: CAKI-1 renal
# CCRF-CEM leukemia = test system: CCRF-CEM leukemia
# COLO 205 colon = test system: COLO 205 colon
# DU-145 prostate = test system: DU-145 prostate
# EKVX NSCLC = test system: EKVX NSCLC
# HCC-2998 colon = test system: HCC-2998 colon
# HCT-116 colon = test system: HCT-116 colon
# HCT-15 colon = test system: HCT-15 colon
# HL-60(TB) leukemia = test system: HL-60(TB) leukemia
# HOP-62 NSCLC = test system: HOP-62 NSCLC
# HOP-92 NSCLC = test system: HOP-92 NSCLC
# HS 578T breast = test system: HS 578T breast
# HT29 colon = test system: HT29 colon
# IGROV1 ovarian = test system: IGROV1 ovarian
# K-562 leukemia = test system: K-562 leukemia
# KM12 colon = test system: KM12 colon
# LOX IMVI melanoma = test system: LOX IMVI melanoma
# M14 melanoma = test system: M14 melanoma
# MALME-3M melanoma = test system: MALME-3M melanoma
# MCF7 breast = test system: MCF7 breast
# MDA-MB-231 breast = test system: MDA-MB-231 breast
# MDA-MB-435 = test system: MDA-MB-435
# MOLT-4 leukemia = test system: MOLT-4 leukemia
# NCI-H226 lung = test system: NCI-H226 lung
# NCI-H23 lung = test system: NCI-H23 lung
# NCI-H460 lung = test system: NCI-H460 lung
# NCI-H522 lung = test system: NCI-H522 lung
# NCI/ADR-RES ovarian = test system: NCI/ADR-RES ovarian
# OVCAR-3 ovarian = test system: OVCAR-3 ovarian
# OVCAR-4 ovarian = test system: OVCAR-4 ovarian
# OVCAR-5 ovarian = test system: OVCAR-5 ovarian
# OVCAR-8 ovarian = test system: OVCAR-8 ovarian
# PC-3 prostate = test system: PC-3 prostate
# RPMI-8226 leukemia = test system: RPMI-8226 leukemia
# RXF 393 renal = test system: RXF 393 renal
# SF-268 CNS = test system: SF-268 CNS
# SF-295 CNS = test system: SF-295 CNS
# SF-539 CNS = test system: SF-539 CNS
# SK-MEL-2 melanoma = test system: SK-MEL-2 melanoma
# SK-MEL-28 melanoma = test system: SK-MEL-28 melanoma
# SK-MEL-5 melanoma = test system: SK-MEL-5 melanoma
# SK-OV-3 ovarian = test system: SK-OV-3 ovarian
# SN12C renal = test system: SN12C renal
# SNB-19 CNS = test system: SNB-19 CNS
# SR leukemia = test system: SR leukemia
# SW-620 colon = test system: SW-620 colon
# T-47D breast = test system: T-47D breast
# TK-10 renal = test system: TK-10 renal
# U251 CNS = test system: U251 CNS
# UACC-257 melanoma = test system: UACC-257 melanoma
# UACC-62 melanoma = test system: UACC-62 melanoma
# UO-31 renal = test system: UO-31 renal
smiles,measurement,setting,value
Cc1ccc(C2=Nc3c(N)nc(N)nc3NC(c3cccc(Nc4ccnc5cc(C(F)(F)F)ccc45)c3)C2)cc1 (centres undefined),GI50,786-0 renal,1510 nM
same,TGI,786-0 renal,2900 nM
same,GI50,A498 renal,2150 nM
same,TGI,A498 renal,8020 nM
same,GI50,A549 NSCLC,2880 nM
same,TGI,A549 NSCLC,10700 nM
same,GI50,ACHN renal,2800 nM
same,TGI,ACHN renal,11100 nM
same,GI50,BT-549 breast,1660 nM
same,TGI,BT-549 breast,3360 nM
same,GI50,CAKI-1 renal,2290 nM
same,TGI,CAKI-1 renal,8710 nM
same,GI50,CCRF-CEM leukemia,2210 nM
same,TGI,CCRF-CEM leukemia,5730 nM
same,GI50,COLO 205 colon,1710 nM
same,TGI,COLO 205 colon,3680 nM
same,GI50,DU-145 prostate,2780 nM
same,TGI,DU-145 prostate,6520 nM
same,GI50,EKVX NSCLC,2910 nM
same,TGI,EKVX NSCLC,11500 nM
same,GI50,HCC-2998 colon,1770 nM
same,TGI,HCC-2998 colon,3330 nM
same,GI50,HCT-116 colon,1610 nM
same,TGI,HCT-116 colon,2960 nM
same,GI50,HCT-15 colon,1760 nM
same,TGI,HCT-15 colon,3570 nM
same,GI50,HL-60(TB) leukemia,2380 nM
same,TGI,HL-60(TB) leukemia,5540 nM
same,GI50,HOP-62 NSCLC,2660 nM
same,TGI,HOP-62 NSCLC,9400 nM
same,GI50,HOP-92 NSCLC,1350 nM
same,TGI,HOP-92 NSCLC,2900 nM
same,GI50,HS 578T breast,1660 nM
same,TGI,HS 578T breast,4460 nM
same,GI50,HT29 colon,2460 nM
same,TGI,HT29 colon,5890 nM
same,GI50,IGROV1 ovarian,1890 nM
same,TGI,IGROV1 ovarian,4770 nM
same,GI50,K-562 leukemia,1370 nM
same,TGI,K-562 leukemia,6980 nM
same,GI50,KM12 colon,1710 nM
same,TGI,KM12 colon,3630 nM
same,GI50,LOX IMVI melanoma,1740 nM
same,TGI,LOX IMVI melanoma,3300 nM
same,GI50,M14 melanoma,1720 nM
same,TGI,M14 melanoma,3430 nM
same,GI50,MALME-3M melanoma,1860 nM
same,TGI,MALME-3M melanoma,3870 nM
same,GI50,MCF7 breast,1840 nM
same,TGI,MCF7 breast,4990 nM
same,GI50,MDA-MB-231 breast,1670 nM
same,TGI,MDA-MB-231 breast,3260 nM
same,GI50,MDA-MB-435,1200 nM
same,TGI,MDA-MB-435,2630 nM
same,GI50,MOLT-4 leukemia,2430 nM
same,TGI,MOLT-4 leukemia,6430 nM
same,GI50,NCI-H226 lung,4880 nM
same,TGI,NCI-H226 lung,22300 nM
same,GI50,NCI-H23 lung,2180 nM
same,TGI,NCI-H23 lung,5580 nM
same,GI50,NCI-H460 lung,1870 nM
same,TGI,NCI-H460 lung,3680 nM
same,GI50,NCI-H522 lung,1560 nM
same,TGI,NCI-H522 lung,3490 nM
same,GI50,NCI/ADR-RES ovarian,2290 nM
same,TGI,NCI/ADR-RES ovarian,6150 nM
same,GI50,OVCAR-3 ovarian,1780 nM
same,TGI,OVCAR-3 ovarian,3530 nM
same,GI50,OVCAR-4 ovarian,3020 nM
same,TGI,OVCAR-4 ovarian,14000 nM
same,GI50,OVCAR-5 ovarian,3690 nM
same,TGI,OVCAR-5 ovarian,15700 nM
same,GI50,OVCAR-8 ovarian,2310 nM
same,TGI,OVCAR-8 ovarian,5600 nM
same,GI50,PC-3 prostate,1590 nM
same,TGI,PC-3 prostate,4380 nM
same,GI50,RPMI-8226 leukemia,1900 nM
same,TGI,RPMI-8226 leukemia,4700 nM
same,GI50,RXF 393 renal,1410 nM
same,TGI,RXF 393 renal,2870 nM
same,GI50,SF-268 CNS,1930 nM
same,TGI,SF-268 CNS,4190 nM
same,GI50,SF-295 CNS,1560 nM
same,TGI,SF-295 CNS,3170 nM
same,GI50,SF-539 CNS,1770 nM
same,TGI,SF-539 CNS,3490 nM
same,GI50,SK-MEL-2 melanoma,1950 nM
same,TGI,SK-MEL-2 melanoma,4050 nM
same,GI50,SK-MEL-28 melanoma,1700 nM
same,TGI,SK-MEL-28 melanoma,3330 nM
same,GI50,SK-MEL-5 melanoma,1600 nM
same,TGI,SK-MEL-5 melanoma,2980 nM
same,GI50,SK-OV-3 ovarian,3560 nM
same,TGI,SK-OV-3 ovarian,13400 nM
same,GI50,SN12C renal,2030 nM
same,TGI,SN12C renal,4710 nM
same,GI50,SNB-19 CNS,2270 nM
same,TGI,SNB-19 CNS,7080 nM
same,GI50,SR leukemia,1530 nM
same,TGI,SR leukemia,5440 nM
same,GI50,SW-620 colon,1700 nM
same,TGI,SW-620 colon,3520 nM
same,GI50,T-47D breast,2220 nM
same,TGI,T-47D breast,8730 nM
same,GI50,TK-10 renal,4110 nM
same,TGI,TK-10 renal,16500 nM
same,GI50,U251 CNS,1820 nM
same,TGI,U251 CNS,3620 nM
same,GI50,UACC-257 melanoma,2120 nM
same,TGI,UACC-257 melanoma,4420 nM
same,GI50,UACC-62 melanoma,1700 nM
same,TGI,UACC-62 melanoma,3460 nM
same,GI50,UO-31 renal,1510 nM
same,TGI,UO-31 renal,3030 nM

# — PubChem BioAssay (NCI)
